From PMC6872687, “Potential for imaging the high-affinity state of the 5-HT1B receptor: a comparison of three PET radioligands with differing intrinsic activity” (EJNMMI Research, 2019)
Several values for one entry are separate records, joined by “and”; a condition that tells them apart may be missing. Equal entries are not always repeated. Where two headings read alike, the source gives them in different places.

Experiments:
5-HT1B receptor [1] = molecular target: T1, 5-HT1B receptor (Homo sapiens, UniProt P28222); test: 5-HT1B receptor affinity (in vitro data, Fig. 1); assay type: binding; conditions: data provided by AstraZeneca
5-HT1B receptor [2] = test: PET baseline and AR-A000002 pretreatment measurement of specific binding in NHP brain; assay type: in vivo, cynomolgus monkey
Procedure: (§1) Three female cynomolgus monkeys were supplied by Astrid Fagraeus Laboratory at the Karolinska Institutet (Solna, Sweden). Anesthesia was initiated via intramuscular injection of ketamine hydrochloride (ca. 10 mg/kg) and after, intubation was maintained by the administration of a mixture of sevoflurane, oxygen, and medical air.
(§2) The NHPs were observed continuously during the days of PET measurements. Body temperature was maintained by Bair Hugger-Model 505 (Arizant Healthcare Inc., MN) and monitored with an esophageal thermometer. Heart rate, blood pressure, respiratory rate, and oxygen saturation were continuously monitored throughout the experiments. Fluid balance was maintained by a continuous infusion of saline. The NHP head was fixed in position throughout PET data acquisition as described previously. PET measurements were conducted using a high-resolution research tomograph (Siemens). Radioactivity in the brain was measured continuously for 123 min after radioligand injection according to a preprogrammed series of 34 frames.
In an initial PET study to evaluate the specific binding of [^11C]3, one NHP (weight 6.9 kg) was used in a baseline measurement. This monkey was also used in a pretreatment paradigm in which the 5-HT1B antagonist AR-A000002 (AZ10419427; 2.0 mg/kg) was intravenously infused over 6 min starting at 30 min before radioligand injection.
(§3) Average PET images were manually co-registered to a T1-weighted brain magnetic resonance (MR) image previously obtained for each monkey. The co-registration parameters were applied to the dynamic PET data. Regions of interest (ROI) were delineated manually for the whole brain, occipital cortex, globus pallidus, caudate nucleus, putamen, ventral striatum (nucleus accumbens), cerebellum, frontal cortex, midbrain, thalamus, and hippocampus. Regional radioactivity was expressed as standardized uptake value (SUV), which was calculated as uptake (becquerels/milliliter)/injected radioactivity (becquerels) × body weight (grams).
(§4) The cerebellum was used as a reference region because this region has negligible density of 5-HT1B receptors. Specific binding to the 5-HT1B receptor was defined as the difference between the total radioactivity concentration in the target brain region and that in the cerebellum, each using the area under the time-radioactivity curve for the scan interval 45–123 min. The binding potential (BPND) was defined as the ratio of specific binding to the radioactivity concentration in the cerebellum, calculated by simplified reference tissue model (SRTM).

5-HT1B receptor [3] = test: PET displacement by fenfluramine-induced endogenous 5-HT release in NHP brain; assay type: in vivo, cynomolgus monkey; conditions: for Specific binding (45-123 min) in the occipital cortex: baseline PET
Procedure: as §1, §2
PET measurements using fenfluramine to evaluate the sensitivity of [^11C]1 and [^11C]3 towards endogenous 5-HT release followed an identical procedure for two NHPs (weight 6.8 and 7.0 kg). Each NHP was used in a baseline and a displacement PET measurement with intravenous infusion of fenfluramine over 5 min starting 15 min after injection of the same radioligand as used in the baseline measurement. The dose of fenfluramine was 1 mg/kg (i.v.) for both radioligands and 5 mg/kg (i.v.) for [^11C]3 only. After an unexpected complication, the study was limited to be concluded only at the lower dose level. In summary, results for [^11C]1 were acquired from this study (1 mg/kg of fenfluramine) and from Lindberg et al. (5.0 mg/kg of fenfluramine), [15] results for [^11C]2 were exclusively acquired from Finnema et al., and all results for [^11C]3 were acquired from this study. The experimental procedure in this study was designed to replicate the procedure described by Finnema et al..
as §3, §4

5-HT1B receptor [4] = molecular target: T1, 5-HT1B receptor; test: GTPγ35S binding assay for EC50 and intrinsic activity (agonist/antagonist efficacy); assay type: biochemical; conditions: data provided by AstraZeneca; for Agonist effect / Antagonist effect: measured at 10 μM
Procedure: EC50 values and intrinsic activity (antagonist/agonist efficacy) were measured by comparing 5-HT1B receptor ability to bind GTPγ^35S when stimulated with 5-HT. The agonist/antagonist effect (percentage) was measured at 10 μM and EC50 in a range from 10 μM to 170 pM. EC50 was determined as the concentration at half the maximum of the dose-response curve.

[5] = logD (in vitro data, Fig. 1); assay type: physicochemical; conditions: data provided by AstraZeneca
5-HT1B receptor [6] = test system: 5-HT1B receptor; design: method as in PMID 20222157; conditions: baseline PET; results for [11C]2 acquired from Finnema et al.; cited from earlier work
[7] = AR-A000002 2.0 mg/kg i.v. pretreatment vs baseline
[8] = after pretreatment with AR-A000002 2.0 mg/kg i.v.
[9] = fenfluramine 1.0 mg/kg i.v. 15 min after radioligand, 45-123 min, individual monkeys
[10] = fenfluramine 1.0 mg/kg i.v., individual monkeys
[11] = fenfluramine 5.0 mg/kg, 45-123 min
[12] = fenfluramine 1.0 mg/kg i.v., 45-123 min

T1 sequence (P28222 whole entry): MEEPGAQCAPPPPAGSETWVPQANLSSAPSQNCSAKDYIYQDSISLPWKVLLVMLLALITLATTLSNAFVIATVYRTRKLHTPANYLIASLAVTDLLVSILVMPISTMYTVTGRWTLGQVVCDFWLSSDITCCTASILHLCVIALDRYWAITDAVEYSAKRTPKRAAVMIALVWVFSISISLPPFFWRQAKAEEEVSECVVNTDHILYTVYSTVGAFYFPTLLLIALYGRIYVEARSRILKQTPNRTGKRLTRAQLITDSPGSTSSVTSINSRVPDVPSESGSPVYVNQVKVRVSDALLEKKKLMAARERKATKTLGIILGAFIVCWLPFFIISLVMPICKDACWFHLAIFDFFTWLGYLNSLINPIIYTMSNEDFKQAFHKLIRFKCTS

Ki (5-HT1B receptor [1]) | Agonist effect (5-HT1B receptor [4]) | Antagonist effect (5-HT1B receptor [4]) | logD [5] | SMILES | Specific binding (45-123 min) in the occipital cortex (5-HT1B receptor [3]) | Decrease in specific binding, occipital cortex (5-HT1B receptor [3]; [9]) | Displacement (decrease in specific binding), globus pallidus (5-HT1B receptor [3]; [10]) | other results
0.6 nM | 77.1% | 18% | 1.5 | [11CH3]N1CCN(c2cccc3c2O[C@H](C(=O)Nc2ccc(N4CCOCC4)cc2)CC3)CC1 [[^11C]3] | 0.9 | 16% and 27% | 4% and 11% | Reduction of BPND, globus pallidus (5-HT1B receptor [2]; [7]): 52%; Reduction of BPND, occipital cortex (5-HT1B receptor [2]; [7]): 90%; BPND, globus pallidus (5-HT1B receptor [2]; [8]): 0.23; BPND, occipital cortex (5-HT1B receptor [2]; [8]): 0.07; BPND (SRTM), globus pallidus (5-HT1B receptor [2]; baseline): 0.48; BPND (SRTM), occipital cortex (5-HT1B receptor [2]; baseline): 0.7; Maximum radioactivity in the whole brain (5-HT1B receptor [2]; baseline PET, i.v., one monkey): 2.5 SUV; Time of maximum whole brain radioactivity (5-HT1B receptor [2]; baseline PET, i.v., one monkey): 10 min; Decrease in specific binding, occipital cortex (5-HT1B receptor [3]; fenfluramine 5.0 mg/kg i.v. 15 min after radioligand, 45-123 min, individual monkeys): 61% and 62%; Reduction in specific binding, frontal cortex (5-HT1B receptor [3]; [11]): 68%; Reduction in specific binding, hippocampus (5-HT1B receptor [3]; [11]): 34%; Displacement, globus pallidus (5-HT1B receptor [3]; fenfluramine 5.0 mg/kg, individual monkeys): 35% and 49%; EC50 (5-HT1B receptor [4]; range 10 μM to 170 pM): 0.97 nM
0.13 nM | – | 190% | 2.3 | [11CH3]N1CCN(c2cc(F)cc3c(=O)cc(C(=O)Nc4ccc(N5CCOCC5)c(F)c4)oc23)CC1 [[^11C]1] | 3.2 | 19% | 3% and 9% | Reduction in specific binding, midbrain (5-HT1B receptor [3]; [12]): 2%; Reduction in specific binding, thalamus (5-HT1B receptor [3]; [12]): 33%
0.4 nM | 53.2% | 48% | 1.3 | Cc1ccc(N2CCN([11CH3])CC2)c2oc(C(=O)Nc3ccc(N4CCOCC4)cc3)cc(=O)c12 [[^11C]2] | – | – | – | Specific binding (45-123 min) in the occipital cortex (5-HT1B receptor [6]): 1.9
